Active and inactive are the calls of the source. No cut-off for these calls is given here.
Assays:
Danio rerio [1] = organism: Danio rerio; experiment: Anti-inflammatory activity in transgenic zebrafish harboring Tg (zlyz:EGFP) assessed as reduction in CuSO4-induced immune cell migration at 10 uM preincubated for 2 hrs followed by CuSO4 treatment for 45 mins by fluorescence microscopy; assay type: functional, organism-based; details: time 165.0 min
[2] = Toxicity in transgenic zebrafish harboring Tg (zlyz:EGFP) preincubated for 2 hrs followed by CuSO4 treatment for 45 mins; parameters: species or system Danio rerio; details: in vivo, time 165 min
Danio rerio [3] = organism: Danio rerio; experiment: Anti-inflammatory activity in transgenic zebrafish harboring Tg (zlyz:EGFP) assessed as reduction in CuSO4-induced immune cell migration at 5 to 15 uM preincubated for 2 hrs followed by CuSO4 treatment for 45 mins by fluorescence microscopy; assay type: functional, organism-based; details: dose 5-15 µM, time 165.0 min
Danio rerio [4] = organism: Danio rerio; experiment: Anti-inflammatory activity in transgenic zebrafish harboring Tg (zlyz:EGFP) assessed as reduction in CuSO4-induced IKK-beta mRNA level at 5 to 15 uM preincubated for 2 hrs followed by CuSO4 treatment for 45 mins […]; assay type: functional, organism-based; details: dose 5-15 µM, time 165.0 min
Danio rerio [5] = organism: Danio rerio; experiment: Anti-inflammatory activity in transgenic zebrafish harboring Tg (zlyz:EGFP) assessed as reduction in CuSO4-induced I-kappa-b-alpha mRNA level at 5 to 15 uM preincubated for 2 hrs followed by CuSO4 treatment for 45 mins […]; assay type: functional, organism-based; details: dose 5-15 µM, time 165.0 min
Danio rerio [6] = organism: Danio rerio; experiment: Anti-inflammatory activity in transgenic zebrafish harboring Tg (zlyz:EGFP) assessed as reduction in CuSO4-induced NF-kappa-b mRNA level at 5 to 15 uM preincubated for 2 hrs followed by CuSO4 treatment for 45 mins […]; assay type: functional, organism-based; details: dose 5-15 µM, time 165.0 min
Danio rerio [7] = organism: Danio rerio; experiment: Anti-inflammatory activity in transgenic zebrafish harboring Tg (zlyz:EGFP) assessed as reduction in CuSO4-induced MYD88 mRNA level at 5 to 15 uM preincubated for 2 hrs followed by CuSO4 treatment for 45 mins […]; assay type: functional, organism-based; details: dose 5-15 µM, time 165.0 min
Danio rerio [8] = organism: Danio rerio; experiment: Anti-inflammatory activity in transgenic zebrafish harboring Tg (zlyz:EGFP) assessed as reduction in CuSO4-induced IL-8 mRNA level at 5 to 15 uM preincubated for 2 hrs followed by CuSO4 treatment for 45 mins […]; assay type: functional, organism-based; details: dose 5-15 µM, time 165.0 min
Danio rerio [9] = organism: Danio rerio; experiment: Anti-inflammatory activity in transgenic zebrafish harboring Tg (zlyz:EGFP) assessed as reduction in CuSO4-induced IRAK1 mRNA level at 5 to 15 uM preincubated for 2 hrs followed by CuSO4 treatment for 45 mins […]; assay type: functional, organism-based; details: dose 5-15 µM, time 165.0 min
Danio rerio [10] = organism: Danio rerio; experiment: Anti-inflammatory activity in transgenic zebrafish harboring Tg (zlyz:EGFP) assessed as reduction in CuSO4-induced IRAK4 mRNA level at 5 to 15 uM preincubated for 2 hrs followed by CuSO4 treatment for 45 mins […]; assay type: functional, organism-based; details: dose 5-15 µM, time 165.0 min
Danio rerio [11] = organism: Danio rerio; experiment: Anti-inflammatory activity in transgenic zebrafish harboring Tg (zlyz:EGFP) assessed as reduction in CuSO4-induced TRAF6 mRNA level at 5 to 15 uM preincubated for 2 hrs followed by CuSO4 treatment for 45 mins […]; assay type: functional, organism-based; details: dose 5-15 µM, time 165.0 min
Danio rerio [12] = organism: Danio rerio; experiment: Anti-inflammatory activity in transgenic zebrafish harboring Tg (zlyz:EGFP) assessed as reduction in CuSO4-induced MAP3K7 mRNA level at 5 to 15 uM preincubated for 2 hrs followed by CuSO4 treatment for 45 mins […]; assay type: functional, organism-based; details: dose 5-15 µM, time 165.0 min
Danio rerio [13] = organism: Danio rerio; experiment: Anti-inflammatory activity in transgenic zebrafish harboring Tg (zlyz:EGFP) assessed as reduction in CuSO4-induced AP-1 mRNA level at 5 to 15 uM preincubated for 2 hrs followed by CuSO4 treatment for 45 mins […]; assay type: functional, organism-based; details: dose 5-15 µM, time 165.0 min
Danio rerio [14] = organism: Danio rerio; experiment: Anti-inflammatory activity in transgenic zebrafish harboring Tg (zlyz:EGFP) assessed as reduction in CuSO4-induced TGF-beta mRNA level at 5 to 15 uM preincubated for 2 hrs followed by CuSO4 treatment for 45 mins […]; assay type: functional, organism-based; details: dose 5-15 µM, time 165.0 min
Danio rerio [15] = organism: Danio rerio; experiment: Anti-inflammatory activity in transgenic zebrafish harboring Tg (zlyz:EGFP) assessed as reduction in CuSO4-induced p38 mRNA level at 5 to 15 uM preincubated for 2 hrs followed by CuSO4 treatment for 45 mins […]; assay type: functional, organism-based; details: dose 5-15 µM, time 165.0 min
Danio rerio [16] = organism: Danio rerio; experiment: Anti-inflammatory activity in transgenic zebrafish harboring Tg (zlyz:EGFP) assessed as increase in CuSO4-reduced PPAR-gamma mRNA level at 5 to 15 uM preincubated for 2 hrs followed by CuSO4 treatment for 45 mins […]; assay type: functional, organism-based; details: dose 5-15 µM, time 165.0 min

SMILES	Activity (Danio rerio [1])	LC50 at 0.75 h [2] [µM]	Activity (Danio rerio [3])	Activity (Danio rerio [4])	Activity (Danio rerio [5])	Activity (Danio rerio [6])	Activity (Danio rerio [7])	Activity (Danio rerio [8])	Activity (Danio rerio [9])	Activity (Danio rerio [10])	Activity (Danio rerio [11])	Activity (Danio rerio [12])	Activity (Danio rerio [13])	Activity (Danio rerio [14])	Activity (Danio rerio [15])	Activity (Danio rerio [16])
COc1ccc2[nH]c3c(ccc4scnc43)c2c1Br	Active	–	–	–	–	–	–	–	–	–	–	–	–	–	–	–
COc1ccc2[nH]c3c(O)cccc3c2c1Br	Active	68	Active	Active	Active	Active	Active	Active	Active	Active	Active	Active	Active	Active	Active	Active
